Source: patent US6548540B2, “Method of treating cancer using dithiocarbamate derivatives” (Charlotte-Mecklenburg Hospital Authority, priority 1998, dated 2003)
Read-outs that look alike come from different tables or passages of the source.

How the values were obtained:
[1] = tested on: Breast carcinoma MDA-MB-453; test: MTT proliferation assay, breast carcinoma; type: cell-based; conditions: Homo sapiens, read-out: Mean Percent Inhibition of Growth; for inhibition at 0.625 µM: disulfiram 0.625 μM; for inhibition at 1.25 µM: disulfiram 1.25 μM; for inhibition at 2.5 µM: disulfiram 2.5 μM; for inhibition at 5 µM: disulfiram 5.0 μM
Experimental: Human malignant cell lines were obtained from American Type Tissue Culture Collection (Rockville, Md.). Melanoma cells lines CRL 1585 and 1619 were cultured in RPMI 1640 (GIBCO-BRL, Life Technologies, Grand Island, N.Y.) with 10% FBS and passed with nonenzymatic Cell Dissociation Solution® (Sigma). The prostate adenocarcinoma cell line CRL 1435 (PC-3) was also cultured in RPMI 1640 with 10% FBS but passed with 0.05% trypsin and 0.53 mM EDTA. The squamous lung carcinoma NCI-H520 and the adenosquamous lung carcinoma NCI-H596 cell lines were grown in RPMI 1640 supplemented with 10% FBS, 10 mM HEPES and 1.0 mM sodium pyruvate and passed with trypsin/EDTA. The small cell lung carcinoma NCI-H82 was cultured as a suspension in RPMI 1640 with 10% FBS. All of the above were grown in a 37° C. humidified environment containing 5% CO2/air. The breast carcinoma cell line MDA-MB-453 was grown in a 37° C. humidified environment with free gas exchange with atmospheric air using Leibovitz's L-15 medium with 2 mM L-glutamine and 10% FBS and was passed with trypsin/EDTA.
The effect of disulfiram (0.15 to 5.0 μM), diethyldithiocarbamate (DDC, 1.0 μM) or PDTC (0.625 to 5.0 μM) on proliferation of malignant cell lines was studied in cultures stimulated with 10% FBS. Cell numbers were quantitated 24-72 hours later. In some experiments disulfiram or PDTC were added immediately after cells were plated. In other experiments, cells were plated and allowed to grow for 24-72 hours before fresh media with disulfiram or PDTC was added, and cell numbers were assayed 24-72 hours later. Synergy was studied between disulfiram and N,N′-bis(2-chloroethyl-N-nitrosourea (carmustine or BCNU, 1.0 to 1,000 μM) or cisplatin (0.1 to 100 μg/ml) added to medium. The effect of metals on disulfiram was studied with 0.2 to 10 μM copper (provided as CuSO4), zinc (as ZnCl2), silver (as silver lactate) or gold (as HAuCl4.3H2O) ions added to growth medium. No pH changes occurred with addition of metal salts to culture medium. To provide a biologically relevant source of copper, in some experiments medium was supplemented with human ceruloplasmin at doses replicating low and high normal adult serum concentrations (250 and 500 μg/ml).
Proliferation of cultured cells was quantitated using a previously reported calorimetric method based upon metabolic reduction of the soluble yellow tetrazolium dye 3-[4,5-dimethylthiazol]-2yl-2,5-diphenyl tetrazolium bromide (MTT) to its insoluble purple formazan by the action of mitochondrial succinyl dehydrogenase (See, e.g., S. J. Hirst, et al., “Quantifying proliferation of cultured human and rabbit airway smooth muscle in response to serum and platelet derived growth factor,” Am. J. Respir. Cell Mol. Biol. 7:574-581 (1992); R. Dashtaki, et al. R., supra; S. S. Brar, et al., “Requirement for reactive oxygen species in serum-induced and platelet-derived growth factor-induced growth of airway smooth muscle,” J. Biol. Chem. 274:20017-20026 (1999)). This assay empirically distinguishes between dead and living cells. For proliferation studies, cells were seeded into 24-well uncoated plastic plates (Costar) at 50,000 cells per well and cultured with respective media and mitogens. After 24-96 hours, medium was removed, cells were washed twice with 1 ml of sterile Dulbecco's modified phosphate buffered saline without Ca^2+ or Mg^2+ (DPBS), the medium was replaced with 1 ml/well fresh medium containing 100 μg/ml MTT, and plates were incubated an additional hour. MTT-containing medium was removed, 0.5 ml dimethylsulfoxide (DMSO) was added to each well, and the absorbance of the solubilized purple formazan dye was measured at 540 nm. A total of 4-6 wells were studied at each treatment condition. Preliminary studies were performed with 50-200 μg/ml MTT incubated for 15 minutes to 3 hours to determine the optimum concentration and incubation time at which the rate of conversion was linear and proportional to the number of cells present. […]

tumor cell lines = test: Proliferation of tumor cell lines with redox, NO synthase or cyclooxygenase agents (cell line not given); type: cell-based, human
Experimental: Potential redox effects of disulfiram were studied in three sets of experiments. The importance of cellular glutathione (GSH) in mediating or modulating thiocarbamate toxicity was studied by measuring levels of intracellular GSH after treatment with disulfiram. […] Also, to assess whether a nonspecific antioxidant effect of disulfiram or PDTC might account for cellular growth inhibition, we studied the effect of the potent lipophilic antioxidant probucol (1.0 to 1,000 μM) on proliferation of malignant cell lines. […] To explore the role of cyclooxygenase inhibition on tumor cell growth, cells were cultured with or without disulfiram in the presence or absence of the cyclooxygenase-1 (COX1) and cyclooxygenase-2 (COX2) inhibitors indomethacin (5μg/ml) or sodium salicylate (1 mM). To probe whether disulfiram might be inducing growth retardation by interruption or stimulation of NO production, proliferation was studied with and without disulfiram in the presence and absence of the nitric oxide […] inhibitor Nω-nitro-L-arginine added to growth medium (100 μM). […] J. Respir. Cell Mol. Biol. 7:574-581 (1992); […], et al. R., supra; S. S. Brar, et al., “Requirement for reactive oxygen species in serum-induced and platelet-derived growth factor-induced growth of airway smooth muscle,” J. Biol. Chem. 274:20017-20026 (1999)). This assay empirically distinguishes between dead and living cells. For proliferation studies, cells were seeded into 24-well uncoated plastic plates (Costar) at 50,000 cells per well and cultured with respective media and mitogens. […] MTT-containing medium was removed, 0.5 ml dimethylsulfoxide (DMSO) was added to each well, and the absorbance of the solubilized purple formazan dye was measured at 540 nm. A total of 4-6 wells were studied at each treatment condition.

[2] = section 'Treatment after 24 hours' (breast grown 48 hours), additional 48 hours
[3] = treatment initially, after 48 hours, 10% FBS

Q: Which inhibition at 0.625 µM [1, 2] does the source give for `CCN(CC)C(=S)SSC(=S)N(CC)CC` [Disulfiram, tetraethylthiuram disulfide] here?
A: The inhibition at 0.625 µM was 26 ± 5%.

Q: What about the inhibition at 0.625 µM [1, 3] of the same compound?
A: The inhibition at 0.625 µM was 69 ± 4%.

Q: And the inhibition at 1.25 µM [1, 2]?
A: The inhibition at 1.25 µM was 26 ± 2%.

Q: What about the inhibition at 1.25 µM [1, 3] of the same compound?
A: The inhibition at 1.25 µM was 94 ± 2%.

Q: And the inhibition at 2.5 µM [1, 2]?
A: The inhibition at 2.5 µM was 39 ± 2%.

Q: And the inhibition at 2.5 µM [1, 3]?
A: Its inhibition at 2.5 µM is 100%.

Q: What about the inhibition at 5 µM [1, 2] of the same compound?
A: The inhibition at 5 µM was 46 ± 4%.

Q: And the inhibition at 5 µM [1, 3]?
A: The inhibition at 5 µM was 100%.

Q: And the inhibition of growth (tumor cell lines; disulfiram alone)?
A: The inhibition of growth was 36.8±4.0%.

Q: And the inhibition of growth (tumor cell lines; disulfiram plus LNAME)?
A: The inhibition of growth was 26.7±3.1%.
